Read-outs that look alike come from different tables or passages of the source.
Target: T1, Human Recombinant Matriptase 2 (Homo sapiens, UniProt Q8IU80)
T1 construct: made in house
T1 sequence (Q8IU80 1-811): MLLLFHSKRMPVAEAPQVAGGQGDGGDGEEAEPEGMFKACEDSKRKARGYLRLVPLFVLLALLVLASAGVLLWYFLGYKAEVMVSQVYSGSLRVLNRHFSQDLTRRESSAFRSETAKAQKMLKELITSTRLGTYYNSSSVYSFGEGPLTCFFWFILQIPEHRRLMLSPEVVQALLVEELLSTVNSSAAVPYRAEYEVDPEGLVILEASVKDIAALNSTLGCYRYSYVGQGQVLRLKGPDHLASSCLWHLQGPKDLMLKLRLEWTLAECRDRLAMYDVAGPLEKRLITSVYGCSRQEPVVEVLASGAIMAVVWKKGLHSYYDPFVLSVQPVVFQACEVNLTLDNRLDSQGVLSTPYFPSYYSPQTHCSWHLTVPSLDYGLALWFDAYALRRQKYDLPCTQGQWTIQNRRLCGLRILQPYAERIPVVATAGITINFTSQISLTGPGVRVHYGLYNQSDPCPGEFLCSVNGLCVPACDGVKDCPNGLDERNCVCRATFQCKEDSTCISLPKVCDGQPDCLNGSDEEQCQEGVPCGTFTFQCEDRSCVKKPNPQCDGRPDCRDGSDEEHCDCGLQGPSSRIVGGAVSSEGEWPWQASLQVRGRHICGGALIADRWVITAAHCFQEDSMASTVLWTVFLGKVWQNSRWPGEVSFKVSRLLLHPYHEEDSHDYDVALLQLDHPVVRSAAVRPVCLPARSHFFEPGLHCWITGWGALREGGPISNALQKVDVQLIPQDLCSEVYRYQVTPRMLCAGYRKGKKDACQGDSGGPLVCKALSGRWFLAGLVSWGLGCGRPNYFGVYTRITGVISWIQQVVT
Assay: Matriptase 2 inhibition, fluorescence based assay (Method I)
Format: biochemical
Experimental: • Method I: Test compounds were evaluated for their potential to inhibit Human Recombinant Matriptase 2 (in-house) using fluorescence based assay. The concentration of Recombinant Matriptase 2 and the substrate used in the assay was: 3.5 nM (In-house Matriptase 2) and 62 μM (Boc-Gln-Ala-Arg-7-amido-4-methyl coumarin hydrobromide −Cat log: I-1550 from Bachem) respectively. The assay buffer used was 50 mM TRIS pH 7.5, 150 mM NaCl, 0.01% Gelatin TCL059 Himedia). The assay was performed using 384 well black flat bottom plate from grenier (Cat log: 781076) at 25° C. The enzyme and compound were preincubated for 30 mins, the plate was read at 60 mins after substrate addition at wavelength Ex: 360/Em: 480 nm. The final assay volume was 20 μl. A stock solution of compounds was initially prepared in DMSO and appropriate dilutions were made and IC50 was determined for all the compounds (final DMSO conc in the assay was 1%). All the measurements were carried out using the Spectramax M5, Molecular devices.
To determine Ki values, dose response curves were generated by plotting percentage inhibition as a function of inhibitor concentration and the data was fitted to sigmoidal non-linear regression equation (variable slope) using Graph Pad prism software V8.

[1] = Table A, Ki of Matriptase-2 given as class symbols, read-out: Mat-2 Ki
[2] = Table B, Human Recombinant Matriptase 2, 3.5 nM enzyme, 62 μM substrate, 30 mins preincubation, read-out: Mean Ki

Ki [2] [µM] | SMILES | other results
– | CN1CCC[C@@H]1COC(=O)Nc1cc(Cn2c(C(=O)O)cc3ccc(CN)nc32)c2ccccc2c1 (racemic) [Compound 335, 6-(aminomethyl)-1-{[3-({[(1-methylpyrrolidin-2-yl)methoxy]carbon-yl}amino)naphthalen-1-yl]methyl}-1H-pyrrolo-[2,3-b]pyridine-2-car-boxylic acid] | Ki [1]: 0.1 to 0.5 µM
– | CN1CCO[C@@H](COC(=O)Nc2cc(Cn3c(C(=O)O)cc4ccc(CN)nc43)c3ccccc3c2)C1 (racemic) [Compound 337, 6-(aminomethyl)-1-{[3-({[(4-methylmorpholin-2-yl)methoxy]carbon-yl}amino)naphthalen-1-yl]methyl}-1H-pyrrolo-[2,3-b]pyridine-2-car-boxylic acid] | Ki [1]: 0.1 to 0.5 µM
– | C[C@@H](CN1CCCCC1)OC(=O)Nc1cc(Cn2c(C(=O)O)cc3ccc(CN)nc32)c2ccccc2c1 (racemic) [Compound 339, rac-6-(aminomethyl)-1-({3-[({[(2R)-1-(piperidin-1-yl)propan-2-yl]oxy}-carbonyl)amino]naph-thalen-1-yl}methyl)-1H-pyrrolo[2,3-b]pyridine-2-carboxylic acid] | Ki [1]: 0.5 to 3 µM
– | NCc1ccc2cc(C(=O)O)n(Cc3cc(NC(=O)OC[C@H]4CCN4Cc4ccccc4)cc4ccccc34)c2n1 (racemic) [Compound 340, rac-6-(aminomethyl)-1-({3-[({[(2R)-1-benzyl-azetidin-2-yl]methoxy}-carbonyl)amino]naph-thalen-1-yl}methyl)-1H-pyrrolo[2,3-b]pyridine-2-carboxylic acid] | Ki [1]: 0.5 to 3 µM
– | CN1CCC(COC(=O)c2cc3ccc(CN)nc3n2Cc2cc(N[S@@+]([O-])Cc3ccccc3)cc3ccccc23)CC1 (racemic) [Compound 367] | Ki [1]: 0.5 to 3 µM
– | CC(c1ccccc1)S(=O)(=O)Nc1cc(Cn2c(C(=O)OCC3CCN(C)CC3)cc3ccc(CN)cc32)c2ccccc2c1 (racemic) [Compound 380, (1-methylpiperidin-4-yl)-methyl 6-(aminomethyl)-1-{[3-(1-phenylethane-sulfonamido)naphthalen-1-yl]methyl}-1H-indole-2-carboxylate] | Ki [1]: ≤ 0.1 µM
– | CN1CCCC(COC(=O)c2cc3ccc(CN)cc3n2Cc2cc(NS(=O)(=O)Cc3ccccc3)cc3ccccc23)C1 (racemic) [Compound 382, (1-methylpiperidin-3-yl)-methyl 6-(aminomethyl)-1-{[3-(phenylmethane-sulfonamido)naphthalen-1-yl]methyl}-1H-indole-2-carboxylate] | Ki [1]: ≤ 0.1 µM
– | NCc1ccc2cc(C(=O)O)n(Cc3cc(NS(=O)(=O)C[C@H]4CNCCO4)cc4ccccc34)c2c1 (racemic) [Compound 391, 6-(aminomethyl)-1-({3-[(morpholin-2-l)methane-sulfonamido]naphthalen-1-yl}methyl)-1H-indole-2-carboxylic acid] | Ki [1]: 0.1 to 0.5 µM
– | CN1CCCC1COC(=O)Nc1cc(Cn2c(C(=O)O)cc3ccc(CN)cc32)c2ccccc2c1 (racemic) [Compound 398, 6-(aminomethyl)-1-{[3-({[(1-methylpyrrolidin-2-yl)methoxy]carbon-yl}amino]naphthalen-1-yl]methyl}-1H-indole-2-carboxylic acid] | Ki (Table A, Ki of Matriptase-2, class symbols, read-out: Mat-2 Ki): 0.5 to 3 µM
– | NCc1ccc2cc(C(=O)O)n(Cc3cc(NS(=O)(=O)CC[C@@H]4CCCN4)cc4ccccc34)c2n1 [Compound 1, (S)-6-(aminomethyl)-1-((3-((2-(pyrrolidin-2-yl)ethyl)sulfonamido)naphthalen-1-yl)methyl)-1H-pyrrolo[2,3-b]pyridine-2-carboxylic acid] | Ki (Table A, Ki of Matriptase-2, read-out: Mat-2 Ki): ≤ 0.1 µM
0.1 to 0.5 | CN1CCC(CCOC(=O)c2cc3ccc(CN)nc3n2Cc2cc(NS(=O)(=O)Cc3ccccc3)cc3c2CCCC3)CC1=O (stereo not drawn) [Compound 2.1] | –
0.1 to 0.5 | CN1CCC(CCOC(=O)c2cc3ccc(CN)nc3n2Cc2cc(NS(=O)(=O)Cc3ccsc3)cc3c2CCCC3)CC1=O (stereo not drawn) [Compound 2.2] | –
≤ 0.1 | CN1CCC(CCOC(=O)c2cc3ccc(CN)nc3n2Cc2cc(NS(=O)(=O)Cc3ccccc3)cc3ccccc23)CC1=O (stereo not drawn) [Compound 2.3] | –
≤ 0.1 | CN1CCC(CCOC(=O)c2cc3ccc(CN)nc3n2Cc2cc(NS(=O)(=O)Cc3ccsc3)cc3ccccc23)CC1=O (stereo not drawn) [Compound 2.4] | –
≤ 0.1 | CN1CC(CCOC(=O)c2cc3ccc(CN)nc3n2Cc2cc(NS(=O)(=O)Cc3ccsc3)cc3ccccc23)CC1=O (stereo not drawn) [Compound 2.6] | –
≤ 0.1 | CN1CC(CCOC(=O)c2cc3ccc(CN)nc3n2Cc2cc(NS(=O)(=O)Cc3ccccc3)cc3ccccc23)CC1=O (stereo not drawn) [Compound 2.7] | –
≤ 0.1 | CN(C)C(=O)CCCOC(=O)c1cc2ccc(CN)nc2n1Cc1cc(CS(=O)(=O)Cc2ccsc2)cc2ccccc12 [Compound 2.10] | –
≤ 0.1 | NCc1ccc2cc(C(=O)OCC3CCNC(=O)C3)n(Cc3cc(NS(=O)(=O)Cc4ccsc4)cc4c3CCCC4)c2n1 (stereo not drawn) [Compound 2.11] | –
0.1 to 0.5 | CN1CCC(CCOC(=O)c2cc3ccc(CN)nc3n2Cc2cc(NS(=O)(=O)Cc3ccccc3)c3ccccc3c2)CC1 [Compound 2.12] | –
≤ 0.1 | NCc1ccc2cc(C(=O)OCC3CNC(=O)C3)n(Cc3cc(NS(=O)(=O)Cc4ccsc4)cc4ccccc34)c2n1 (stereo not drawn) [Compound 2.13] | –

Ki [2] [µM] | SMILES | other results
≤ 0.1 | CN1CCC(CCOC(=O)c2cc3ccc(CN)nc3n2Cc2cc(NS(=O)(=O)Cc3ccccc3)cc3c2CCCC3)CC1 [Compound 2.15] | –
0.1 to 0.5 | CN1CCC(COC(=O)c2cc3ccc(CN)nc3n2Cc2cc(NS(=O)(=O)Cc3ccccc3)c3ccccc3c2)CC1 [Compound 2.16] | –
≤ 0.1 | CN1CCC(COC(=O)c2cc3ccc(CN)nc3n2Cc2cc(NS(=O)(=O)Cc3ccsc3)cc3ccccc23)CCC1=O (stereo not drawn) [Compound 2.17] | –
≤ 0.1 | CN1CCC(COC(=O)c2cc3ccc(CN)nc3n2Cc2cc(NS(=O)(=O)Cc3ccccc3)cc3ccccc23)CCC1=O (stereo not drawn) [Compound 2.18] | –
≤ 0.1 | CN1CCC(COC(=O)c2cc3ccc(CN)nc3n2Cc2cc(NS(=O)(=O)Cc3ccccc3)cc3c2CCCC3)CC1=O (stereo not drawn) [Compound 2.19] | –
≤ 0.1 | CN1CC(COC(=O)c2cc3ccc(CN)nc3n2Cc2cc(NS(=O)(=O)Cc3ccsc3)cc3ccccc23)CC1=O (stereo not drawn) [Compound 2.20] | –
≤ 0.1 | CN1CC(COC(=O)c2cc3ccc(CN)nc3n2Cc2cc(NS(=O)(=O)Cc3ccccc3)cc3ccccc23)CC1=O (stereo not drawn) [Compound 2.21] | –
≤ 0.1 | CN1CCC(COC(=O)c2cc3ccc(CN)nc3n2Cc2cc(NS(=O)(=O)Cc3ccsc3)cc3c2CCCC3)CC1=O (stereo not drawn) [Compound 2.22] | –
≤ 0.1 | CN1CCC(CCCOC(=O)c2cc3ccc(CN)nc3n2Cc2cc(NS(=O)(=O)Cc3ccccc3)cc3ccccc23)CC1 [Compound 2.23] | –
≤ 0.1 | NCc1ccc2cc(C(=O)NCc3ccc(N)cc3)n(Cc3cc(NS(=O)(=O)Cc4ccccc4)cc4ccccc34)c2n1 [Compound 2.24] | –
≤ 0.1 | CB1C=Cc2c(Cn3c(C(=O)OCC4CCN(C)CC4)cc4ccc(CN)nc43)cc(NS(=O)(=O)Cc3ccccc3)cc2N1 [Compound 2.25] | –
> 3 | CN1CCC(COC(=O)c2cc3ccc(CN)nc3n2Cc2cccn3nccc23)CC1 [Compound 2.26] | –
0.1 to 0.5 | CN(C)c1ccc(COC(=O)c2cc3ccc(CN)nc3n2Cc2cc(NS(=O)(=O)Cc3ccccc3)cc3ccccc23)cc1 [Compound 2.27] | –
0.1 to 0.5 | CN1CCC(COC(=O)c2cc3ccc(CN)nc3n2Cc2cc(NS(=O)(=O)CC3CC3)cc3ccccc23)CC1 [Compound 2.28] | –
≤ 0.1 | Cn1ccnc1CCOC(=O)c1cc2ccc(CN)nc2n1Cc1cc(NS(=O)(=O)Cc2ccsc2)cc2ccccc12 [Compound 2.29] | –
> 3 | C=Cc1c(N)cc(Br)cc1Cn1c(C(=O)OCC2CCN(C)CC2)cc2ccc(CN)nc21 [Compound 2.30] | –
0.5 to 3 | CB1C=Cc2c(Cn3c(C(=O)OCC4CCN(C)CC4)cc4ccc(CN)nc43)cc(Br)cc2N1 [Compound 2.31] | –
≤ 0.1 | CN1CCC(COC(=O)c2cc3ccc(CN)nc3n2Cc2cc(NS(=O)(=O)Cc3ccsc3)cc3ccccc23)CC1=O (stereo not drawn) [Compound 2.32] | –
≤ 0.1 | CN1CCC(C(OC(=O)c2cc3ccc(CN)nc3n2Cc2cc(NS(=O)(=O)Cc3ccccc3)cc3ccccc23)C2CC2)CC1 (stereo not drawn) [Compound 2.33] | –
